Legend:
[1] = system: Leishmania infantum; experiment: Antileishmanial activity against promastigote form of Leishmania infantum MCAN_UY_2015_gPL8 isolate assessed as decrease in parasite viability measured after 72 hrs by resazurin assay
[2] = system: Leishmania infantum; experiment: Antileishmanial activity against promastigote form of Leishmania infantum MCAN_UY_2015_bCH11 isolate assessed as decrease in parasite viability measured after 72 hrs by resazurin assay
[3] = system: Leishmania infantum; experiment: Antileishmanial activity against promastigote form of Leishmania infantum MCAN_UY_2015_bPL7 isolate assessed as decrease in parasite viability measured after 72 hrs by resazurin assay
[4] = system: Leishmania infantum; experiment: Antileishmanial activity against promastigote form of Leishmania infantum MCAN_UY_2015_mCO8 isolate assessed as decrease in parasite viability measured after 72 hrs by resazurin assay
[5] = system: Leishmania infantum; experiment: Antileishmanial activity against promastigote form of Leishmania infantum MCAN_UY_2015_gCH2 isolate assessed as decrease in parasite viability measured after 72 hrs by resazurin assay
[6] = system: Leishmania infantum; experiment: Antileishmanial activity against promastigote form of Leishmania infantum MHOM/BR/2002/LPC-RPV assessed as decrease in parasite viability measured after 72 hrs by resazurin assay
[7] = system: Leishmania infantum; experiment: Antileishmanial activity against amastigote form of Leishmania infantum MCAN_UY_2015_bCH11 isolate assessed as decrease in parasite viability measured after 72 hrs by resazurin assay; assay type: functional, organism-based
[8] = system: Leishmania infantum; experiment: Antileishmanial activity against amastigote form of Leishmania infantum MCAN_UY_2015_gCH2 isolate assessed as decrease in parasite viability measured after 72 hrs by resazurin assay; assay type: functional, organism-based
[9] = system: Leishmania infantum; experiment: Antileishmanial activity against amastigote form of Leishmania infantum MCAN_UY_2015_gPL8 isolate assessed as decrease in parasite viability measured after 72 hrs by resazurin assay; assay type: functional, organism-based
[10] = system: Leishmania infantum; experiment: Antileishmanial activity against amastigote form of Leishmania infantum MCAN_UY_2015_mCO8 isolate assessed as decrease in parasite viability measured after 72 hrs by resazurin assay; assay type: functional, organism-based
[11] = system: Leishmania infantum; experiment: Antileishmanial activity against amastigote form of Leishmania infantum MHOM/BR/2002/LPC-RPV assessed as decrease in parasite viability measured after 72 hrs by resazurin assay; assay type: functional, organism-based
[12] = system: Leishmania infantum; experiment: Antileishmanial activity against amastigote form of Leishmania infantum MCAN_UY_2015_bPL7 isolate assessed as decrease in parasite viability measured after 72 hrs by resazurin assay; assay type: functional, organism-based

`CC[C@H](C)C(=O)O[C@H]1C[C@@H](C)C=C2C=C[C@H](C)[C@H](CC[C@@H]3C[C@@H](O)CC(=O)O3)[C@H]21` [LOVASTATIN] showed an IC50 [1] of 25.4 µM, an IC50 [2] of 25.3 µM and an IC50 [3] of 25.3 µM. The IC50 [4] was 25.4 µM, the IC50 [5] was 25.3 µM and the IC50 [6] was 12.9 µM.

With `CCCCCCCCCCCCCCCCOP(=O)([O-])OCC[N+](C)(C)C` [MILTEFOSINE] the IC50 [1] was 4.1 µM, the IC50 [2] was 3.8 µM and the IC50 [3] was 3.6 µM. For the same compound, the IC50 [4] was 3.4 µM, the IC50 [5] was 4.1 µM and the IC50 [6] was 5.3 µM.

With `CC1CS(=O)(=O)CCN1/N=C/c1ccc([N+](=O)[O-])o1` (stereo not given) [NIFURTIMOX] the IC50 [1] was 6 µM, the IC50 [2] was 6.5 µM and the IC50 [3] was 6.5 µM. It also gave an IC50 [4] of 6.7 µM, an IC50 [5] of 6.7 µM and an IC50 [6] of 6.3 µM.

MEGLUMINE ANTIMONATE was tested, and the IC50 [7] was 50.5 µM, the IC50 [8] was 50.4 µM and the IC50 [9] was 50.1 µM. It also gave an IC50 [10] of 51 µM, an IC50 [11] of 50.1 µM and an IC50 [12] of 50.2 µM.

With `C[C@@H]1[C@H](O)[C@@H](C)/C=C/C=C/C=C/C=C/C=C/C=C/C=C/[C@H](O[C@@H]2O[C@H](C)[C@@H](O)[C@H](N)[C@@H]2O)C[C@@H]2O[C@](O)(C[C@@H](O)C[C@@H](O)[C@H](O)CC[C@@H](O)C[C@@H](O)CC(=O)O[C@H]1C)C[C@H](O)[C@H]2C(=O)O` [AMPHOTERICIN B] the IC50 [1] was 24.4 µM, the IC50 [2] was 24.6 µM and the IC50 [3] was 24.9 µM. The IC50 [4] was 12.7 µM, the IC50 [5] was 24.8 µM and the IC50 [6] was 6.5 µM.

From ChEMBL document CHEMBL4699417, “Leishmania infantum isolates exhibit high infectivity and reduced susceptibility to amphotericin B” (RSC Med Chem, 2020)
